Patent US5582981A, “Method for identifying an oligonucleotide aptamer specific for a target” (priority 1994, dated 1996)

Tested on: thrombin
Assay: clotting time for thrombin-catalyzed conversion of fibrinogen to fibrin
Format: biochemical
Details: thrombin 10 nM, 7 mer at 20 μM; thrombin alone 24 sec
Experimental: Clotting time for the thrombin-catalyzed conversion of fibrinogen (2.0 mg/ml in selection buffer) to fibrin at 37° C. was measured using a precision coagulation timer apparatus (Becton-Dickinson, Cat. nos. 64015, 64019, 64020). Thrombin (10 nM) incubated with fibrinogen alone clotted in 40 sec, thrombin incubated with fibrinogen and P1 nuclease (Boehringer-Mannheim, Indianapolis, Ind.) clotted in 39 sec, thrombin incubated with fibrinogen and aptamer clone #5 (200 nM) clotted in 115 sec, and thrombin incubated with fibrinogen, clone #5 (200 nM) and P1 nuclease clotted in 40 sec. All incubations were carried out at 37° C. using reagents prewarmed to 37° C. Aptamer DNA or, when present, P1 nuclease, was added to the fibrinogen solution prior to addition of thrombin.
Inhibition of thrombin activity was studied using a consensus-related sequence 7 mer, 5' GGTTGGG 3' (SEQ ID NO: 15), and a control 7 mer with the same base composition but different sequence (5' GGGGGTT 3') (SEQ ID NO: 16). Clotting times were measured using the timer apparatus as above. The thrombin clotting time in this experiment was 24 sec using thrombin alone (10 nM), 26 sec with thrombin and the control sequence at 20 μM and 38 sec with thrombin plus the consensus sequence at 20 μM, indicating specificity for thrombin inhibition at the level of the 7 mer.

| Substance | thrombin clotting time |
| --- | --- |
| 5' GGGGGTT 3' (chemistry not given here) [SEQ ID NO: 16] | 26 s |
| 5' GGTTGGG 3' (chemistry not given here) [SEQ ID NO: 15] | 38 s |
